These results are taken from ChEMBL document CHEMBL1156285, “Stereochemistry-activity relationship of orally active tetralin S1P agonist prodrugs” (Bioorg Med Chem Lett, 2010).

Calls of active or inactive are those of the source. The rule behind the calls is not given here. Some results are limits rather than exact numbers.

Data set [1] has as its target T1, Sphingosine kinase 2 (Homo sapiens) (UniProt Q9NRA0).
T1 sequence (whole entry): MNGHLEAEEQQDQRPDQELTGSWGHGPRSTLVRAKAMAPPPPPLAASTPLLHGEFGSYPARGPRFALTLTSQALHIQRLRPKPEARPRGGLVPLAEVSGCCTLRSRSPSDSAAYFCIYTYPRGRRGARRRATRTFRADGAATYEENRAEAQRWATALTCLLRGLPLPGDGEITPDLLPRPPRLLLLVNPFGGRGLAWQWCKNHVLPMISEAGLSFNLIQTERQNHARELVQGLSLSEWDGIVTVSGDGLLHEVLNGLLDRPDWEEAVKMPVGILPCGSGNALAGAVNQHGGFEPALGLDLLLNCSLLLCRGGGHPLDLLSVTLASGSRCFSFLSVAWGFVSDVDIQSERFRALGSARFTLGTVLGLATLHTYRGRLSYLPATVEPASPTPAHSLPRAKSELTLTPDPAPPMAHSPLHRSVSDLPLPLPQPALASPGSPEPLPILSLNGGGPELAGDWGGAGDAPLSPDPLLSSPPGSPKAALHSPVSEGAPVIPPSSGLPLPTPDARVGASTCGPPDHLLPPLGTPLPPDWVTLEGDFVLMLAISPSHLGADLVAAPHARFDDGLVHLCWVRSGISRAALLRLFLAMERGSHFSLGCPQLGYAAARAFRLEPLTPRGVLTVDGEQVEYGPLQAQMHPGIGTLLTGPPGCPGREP
Description: Induction of human SphK2 phosphorylation. On the set-up: concentration or dose not given beside the values.

The species entered for data set [2] is Mus musculus. Nature of the data set: Immunosuppressive activity in mouse assessed as induction of lymphopenia. It is filed as functional.
The target of data set [3] is T2, Sphingosine 1-phosphate receptor 4 (Homo sapiens, UniProt O95977).
T2 sequence (O95977 whole entry): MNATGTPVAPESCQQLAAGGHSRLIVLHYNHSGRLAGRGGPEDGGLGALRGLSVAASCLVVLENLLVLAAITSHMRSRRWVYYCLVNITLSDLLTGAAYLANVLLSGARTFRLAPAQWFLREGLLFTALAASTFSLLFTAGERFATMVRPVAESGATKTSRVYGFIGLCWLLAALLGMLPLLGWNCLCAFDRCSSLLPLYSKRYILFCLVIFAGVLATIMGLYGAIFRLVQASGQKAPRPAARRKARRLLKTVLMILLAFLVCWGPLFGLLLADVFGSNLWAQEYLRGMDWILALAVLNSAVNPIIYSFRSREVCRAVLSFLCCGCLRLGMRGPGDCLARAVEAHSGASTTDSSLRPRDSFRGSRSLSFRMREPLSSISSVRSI
Nature of the data set: Agonist activity at human S1P4 receptor assessed as effect on calcium mobilization by Gq dependent whole cell assay. It is filed as functional.

In data set [4] the target is T3, Sphingosine kinase 2 (Mus musculus) (UniProt Q9JIA7).
T3 sequence (whole entry): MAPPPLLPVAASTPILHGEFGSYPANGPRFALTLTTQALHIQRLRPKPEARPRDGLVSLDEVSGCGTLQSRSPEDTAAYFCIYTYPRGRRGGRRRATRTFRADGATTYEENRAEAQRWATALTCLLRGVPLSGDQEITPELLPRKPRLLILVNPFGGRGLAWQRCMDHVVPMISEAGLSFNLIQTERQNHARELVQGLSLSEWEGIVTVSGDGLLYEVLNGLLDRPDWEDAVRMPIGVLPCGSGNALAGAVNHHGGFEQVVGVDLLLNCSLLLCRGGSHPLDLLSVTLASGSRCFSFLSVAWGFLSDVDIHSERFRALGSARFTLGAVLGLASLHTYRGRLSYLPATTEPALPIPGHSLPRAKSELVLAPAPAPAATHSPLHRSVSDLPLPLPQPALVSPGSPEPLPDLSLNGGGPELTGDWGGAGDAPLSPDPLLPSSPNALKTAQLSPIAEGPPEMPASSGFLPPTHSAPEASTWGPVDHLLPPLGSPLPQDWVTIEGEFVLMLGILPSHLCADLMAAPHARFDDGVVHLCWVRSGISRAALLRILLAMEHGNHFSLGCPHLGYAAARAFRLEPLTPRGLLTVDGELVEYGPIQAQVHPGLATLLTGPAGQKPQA
Nature of the data set: Induction of mouse SphK2 phosphorylation.

Data set [5] deals with T4, Sphingosine 1-phosphate receptor 3 (Homo sapiens, UniProt Q99500). Nature of the data set: Agonist activity at human S1P3 receptor assessed as effect on calcium mobilization by Gq dependent whole cell assay. It is filed as functional.
T4 sequence (Q99500 whole entry): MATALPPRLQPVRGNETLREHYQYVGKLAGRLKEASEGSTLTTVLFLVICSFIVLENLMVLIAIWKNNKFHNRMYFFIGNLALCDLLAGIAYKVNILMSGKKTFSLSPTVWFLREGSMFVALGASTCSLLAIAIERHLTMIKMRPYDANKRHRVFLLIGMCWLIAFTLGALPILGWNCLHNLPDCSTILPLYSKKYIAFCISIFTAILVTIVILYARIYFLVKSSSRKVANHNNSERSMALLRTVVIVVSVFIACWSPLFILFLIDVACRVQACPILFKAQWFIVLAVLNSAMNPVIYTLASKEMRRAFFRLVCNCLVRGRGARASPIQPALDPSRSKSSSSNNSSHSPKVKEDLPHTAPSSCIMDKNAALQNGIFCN
In data set [6] the target is T5, Sphingosine 1-phosphate receptor 1 (Homo sapiens, UniProt P21453). Nature of the data set: Agonist activity at human S1P1 receptor assessed as effect on calcium mobilization by Gq dependent whole cell assay. It is filed as functional.
T5 sequence (P21453 whole entry): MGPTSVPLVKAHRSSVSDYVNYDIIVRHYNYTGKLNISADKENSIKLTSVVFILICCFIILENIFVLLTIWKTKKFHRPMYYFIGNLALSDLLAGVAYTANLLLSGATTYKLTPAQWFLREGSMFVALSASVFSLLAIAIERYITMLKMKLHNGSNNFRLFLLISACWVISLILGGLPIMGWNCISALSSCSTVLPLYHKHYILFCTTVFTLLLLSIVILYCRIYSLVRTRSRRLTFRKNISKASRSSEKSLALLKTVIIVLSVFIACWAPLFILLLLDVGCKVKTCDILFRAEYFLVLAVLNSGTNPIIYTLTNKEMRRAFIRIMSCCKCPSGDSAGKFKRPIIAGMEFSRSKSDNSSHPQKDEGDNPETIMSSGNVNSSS
The target in data set [7] is Sphingosine 1-phosphate receptor 2 (Homo sapiens, UniProt O95136). Nature of the data set: Agonist activity at human S1P2 receptor assessed as effect on calcium mobilization by Gq dependent whole cell assay. It is filed as functional.
Chain of Sphingosine 1-phosphate receptor 2 (O95136 whole entry): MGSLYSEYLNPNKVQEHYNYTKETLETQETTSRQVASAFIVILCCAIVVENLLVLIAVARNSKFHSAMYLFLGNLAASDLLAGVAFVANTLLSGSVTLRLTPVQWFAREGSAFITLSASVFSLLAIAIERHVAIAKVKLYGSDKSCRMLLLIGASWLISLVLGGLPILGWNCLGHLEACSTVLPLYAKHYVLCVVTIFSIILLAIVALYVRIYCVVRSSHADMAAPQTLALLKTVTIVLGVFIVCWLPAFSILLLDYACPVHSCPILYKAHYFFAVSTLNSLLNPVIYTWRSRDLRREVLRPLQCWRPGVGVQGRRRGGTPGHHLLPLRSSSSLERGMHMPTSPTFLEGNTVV
The target in data set [8] is Sphingosine 1-phosphate receptor 5 (Homo sapiens, UniProt Q9H228). Description: Agonist activity at human S1P5 receptor assessed as effect on calcium mobilization by Gq dependent whole cell assay. It is filed as functional.
Chain of Sphingosine 1-phosphate receptor 5 (Q9H228 whole entry): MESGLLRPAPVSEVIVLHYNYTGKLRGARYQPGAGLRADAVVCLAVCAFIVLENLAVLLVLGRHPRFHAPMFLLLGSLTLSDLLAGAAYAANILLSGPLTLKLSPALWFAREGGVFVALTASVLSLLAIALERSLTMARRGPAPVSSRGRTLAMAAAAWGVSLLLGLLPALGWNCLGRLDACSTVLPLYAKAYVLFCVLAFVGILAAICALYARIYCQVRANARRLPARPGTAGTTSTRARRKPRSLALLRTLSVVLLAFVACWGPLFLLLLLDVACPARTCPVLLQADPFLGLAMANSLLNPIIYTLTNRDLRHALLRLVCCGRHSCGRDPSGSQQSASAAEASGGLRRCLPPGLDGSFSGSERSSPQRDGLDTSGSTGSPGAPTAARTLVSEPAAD
In data set [9] the target is T4, Sphingosine 1-phosphate receptor 3. Description: Agonist activity at human S1P3 receptor assessed as effect on calcium mobilization by Gi dependent whole cell assay. It is filed as functional.
For data set [10], the target named is T5, Sphingosine 1-phosphate receptor 1. Nature of the data set: Agonist activity at human S1P1 receptor assessed as effect on calcium mobilization by Gi dependent whole cell assay. It is filed as functional.
In data set [11] the test system is Mus musculus. Nature of the data set: Immunosuppressive activity in mouse assessed as induction of lymphopenia at 2 mg/kg after 72 hrs. It is filed as functional, organism-based. Also on record: dose 2 mg/kg.
For data set [12], the system named is Mus musculus. Description: Half life in mouse at 2 mg/kg after 72 hrs. It is filed as ADME, organism-based. Also on record: dose 2 mg/kg. The note with it: in vivo.
The species named for data set [13] is Mus musculus. Nature of the data set: Immunosuppressive activity in mouse assessed as induction of […]. It is filed as functional.
The subject of data set [14] is Mus musculus. Description: Oral bioavailability in mouse at 2 mg/kg after 72 hrs. It is filed as ADME, organism-based. Particulars: in vivo.
In data set [15] the test system is Mus musculus. Nature of the data set: Oral bioavailability in mouse at 1 mg/kg after 1 week. It is filed as ADME, organism-based. The note with it: in vivo, 168 h.
The test system of data set [16] is Mus musculus. Nature of the data set: Half life in mouse at 1 mg/kg after 1 week. On the set-up: dose 1 mg/kg. The note with it: in vivo, 168 h. It is filed as ADME, organism-based.
Data set [17] deals with Mus musculus. Description: Immunosuppressive activity in mouse assessed as induction of lymphopenia at 1 mg/kg after 1 week. It is filed as functional, organism-based. On the set-up: dose 1 mg/kg.
In data set [18] the test system is Mus musculus. Nature of the data set: Vd in mouse at 1 mg/kg after 1 week. Particulars: in vivo, 168 h.
Data set [19] can be described thus: Clearance in mouse at 1 mg/kg after 1 week. It is filed as ADME, organism-based. Also on record: dose 1 mg/kg. The note with it: in vivo.

`CCCCCCCCc1ccc2c(c1)CC[C@H]([C@](C)(N)CO)C2` returned an Activity in [1] of 0%. The ED50 in data set [2] is > 5 mg/kg.
For the compound `CCCCCCCCc1ccc(CC[C@@](N)(CO)COP(=O)(O)O)cc1`, in data set [3], the EC50 came out at 137 nM.
Regarding `CCCCCCCCc1ccc(CCC(N)(CO)CO)cc1` [FINGOLIMOD], the Activity in [1] turned out to be 76%; in [4] it was 87%. For the same compound, in [2], the 50% effective dose (ED50) came out at 0.03 mg/kg.
Consider `CCCCCCCCc1ccc2c(c1)CC[C@@H](C(N)(CO)COP(=O)(O)O)C2` (stereo in doubt), for which the EC50 in [5] was 25.7 nM; in data set [6] it was 133 nM; in [3] it was 41.4 nM; in data set [7], > 5000 nM; in [8], 33 nM; in data set [9] it was > 5000 nM. For the same compound, the EC50 in data set [10] came out at 0.344 nM.
Turning to `CCCCCCCCc1ccc2c(c1)CC[C@H]([C@](C)(N)COP(=O)(O)O)C2`, the EC50 was 922 nM in [5], > 5000 nM in [6], > 5000 nM in [9] and 13.6 nM in data set [10].
With `CCCCCCCCc1ccc2c(c1)CC[C@@H](C(N)(CO)CO)C2`, the Activity in data set [1] is 9%; in data set [13], 3%; in data set [4], 4%. The outcome in data set [11] was Active. Further, in [12], the t1/2 amounted to 16 h. Also, the ED50 in data set [2] came to 0.2 mg/kg. Besides, in [14], the F was found to be 55%.
For `CCCCCCCCc1ccc2c(c1)CC[C@@H]([C@](C)(N)COP(=O)(O)O)C2`, the EC50 is > 5000 nM in [9] and 19.7 nM in data set [10].
The like results for `CCCCCCCCCCCCC/C=C/[C@@H](O)[C@@H](N)COP(=O)(O)O` were, in that order, 0.449 nM and 0.027 nM.
As for `CCCCCCCCc1ccc2c(c1)CC[C@@H]([C@@](C)(N)COP(=O)(O)O)C2`, the EC50 was 38.2 nM in [5], 5.62 nM in [6], 0.15 nM in data set [9] and 0.088 nM in data set [10].
`CCCCCCCCc1ccc2c(c1)CC[C@@H]([C@@](C)(N)CO)C2` gave an Activity in [1] of 38%. The ED50 in [2] worked out at 0.8 mg/kg.
Turning to `CCCCCCCCc1ccc2c(c1)CC[C@H]([C@@](C)(N)COP(=O)(O)O)C2`, the EC50 is 97.4 nM in data set [5]; 1.79 nM in data set [6]; 16 nM in [3]; > 5000 nM in data set [7]; 1.49 nM in data set [8]; 0.286 nM in [9]. Further, in data set [10], the EC50 was 0.018 nM.
As to `CCCCCCCCc1ccc2c(c1)CC[C@H](C(N)(CO)CO)C2`, the Activity in data set [1] was 3%. Also, in data set [2], the ED50 turned out to be 3.8 mg/kg.
For the compound `CCCCCCCCc1ccc(CC[C@](N)(CO)COP(=O)(O)O)cc1` [FTY720-P], the EC50 in data set [3] was 22.2 nM.
Turning to `CCCCCCCCc1ccc2c(c1)CC[C@@H](C(N)(CO)COP(=O)(O)O)C2` (single isomer, unassigned; isomer 1), the EC50 in data set [5] is 18.7 nM; in [6], 1.95 nM; in data set [3], 5.39 nM; in data set [7], > 5000 nM; in [8], 0.33 nM; in [9], 0.215 nM. For the same compound, the EC50 in data set [10] is 0.077 nM.
`CCCCCCCCc1ccc2c(c1)CC[C@@H]([C@](C)(N)CO)C2` yielded an Activity in data set [1] of 0%.
For the compound `CCCCCCCCc1ccc2c(c1)CC[C@H]([C@@](C)(N)CO)C2`, the F in data set [15] was 55%. In addition, the Activity in data set [1] amounted to 77%; in data set [13], 63%; in [4], 90%. The t1/2 in [16] stood at 36 h. The result in [17] was Active. In data set [2], the ED50 was 0.1 mg/kg. For the same compound, in data set [18], the Vd was 16 L/kg. In addition, the clearance in data set [19] is 5.5 mL/min/kg.
